This note sets out measurements from patent publication US20080039362A1, “Combination drug therapy for reducing scar tissue formation” (Afmedica, Inc., priority 2006, published 2008).

Data set [1] deals with Human coronary artery endothelial cells (EC). As to the method: Human peripheral blood monocytes were isolated by density centrifugation and magnetic separation (Miltenyi). Human platelets were purchased from the San Diego Blood Bank. Human coronary artery endothelial cells and aortic smooth muscle cells were purchased from Cambrex. Tissue culture polystyrene plates (TCPS; Falcon) with or without fibronectin coating (1 mg/ml) were used as controls.
Human coronary artery endothelial cells (EC) and aortic smooth muscle cells (SMC) were incubated on the polymers for 72 hours.

A further data set deals with Human platelets. The data set is described as follows: Platelet adhesion and aggregation on surfaces. The following applies: 30 minutes exposure; FIG. 21. The class given is cell-based. As to the method:
Platelet aggregation, used as a marker of polymer hemocompatibility, was visualized using human platelets that were exposed to PEA and a fibrinogen-coated surface for 30 minutes.

poly(ester amide) [PEA]: the toxic effects result in data set [1] is listed as “no toxic effects”.
For fibrinogen, the “platelet adhesion and aggregation” value in the data set on Human platelets is listed as “aggregated as expected”.
